Patent US20200188475A1, “REAGENTS FOR INDUCING AN IMMUNE RESPONSE” (Dana-Farber Cancer Institute, Inc., priority 2007, published 2020)
Ends that are not written are not given here. * marks the point of attachment. R1 = nitroxide spin-labeled side chain, CC1(C)C=C(CS*)C(C)(C)N1[O]

What was measured:
4E10 antibody = assay: SPR (BIAcore) 4E10 binding to MPER variant or spin-labeled peptides on liposomes; settings: for decrease of 4E10 binding to the lipid-embedded MPER: mutation of N671 to residues occurring in other viral strains; for 4E10 antibody binding to the spin-labeled MPER peptide: membrane-bound spin-labeled peptides, POPC/POPG liposomes
[1] = target: MPER segment 662-683 of HXB2 strain HIV-1 gp160 (HIV-1 (HXB2 strain)); assay: ITC at 25 °C, MPER peptide with virion membrane-like liposomes injected into 4E10 Fab
[2] = Stability of MPER adsorption to lipid-enveloped PLGA microparticles in serum-containing medium (confocal imaging); type: physicochemical; settings: culture medium containing 10% FCS in the presence of DCs, FITC-tagged MPER, qualitative; preliminary studies
liposomes = assay: MPER binding to liposomes as a function of membrane composition; settings: liposomes of DMPC, 4:1 DOPC:DOPG or HIV membrane-mimicking composition; preliminary studies
[3] = Aqueous solubility of the MPER segment; type: physicochemical
[4] = target: MPER segment 662-683 of HXB2 strain HIV-1 gp160 (HIV-1 (HXB2 strain)); assay: SPR, intact IgG over membrane-bound MPER, global fit with a two-step conformational change model

**Q.** For “N671T: HXB2 MPER single amino acid variant, N671 to T (ELDKWASLWTWFNITNWLWYIK)”, which “decrease of 4E10 binding to the lipid-embedded MPER” value (“decrease of 4E10 binding” for short) (4E10 antibody) is on record?
**A.** The value was “severely”.

**Q.** Which results are given for 4E10 antigen-binding fragment (Fab)?
**A.** Kd [1]: 1000 nM; enthalpy change [1]: -25 kcal/mol; entropic energy change (-TDS) [1]: 16.9 kcal/mol

**Q.** Which “decrease of 4E10 binding” value (4E10 antibody) does the source give for “N671D: HXB2 MPER single amino acid variant, N671 to D (ELDKWASLWDWFNITNWLWYIK)” here?
**A.** Its value is “severely”.

**Q.** With “W672: MPER 662-683 peptide with cysteine substitution and nitroxide spin label R1 at position W672 (ELDKWASLWNC(R1)FNITNWLWYIK)” as the substance, how does the “4E10 antibody binding to the spin-labeled MPER peptide” value (shortened to “4E10 antibody binding”) (4E10 antibody) read?
**A.** Its value is “completely abolished”.

**Q.** For “N671S: HXB2 MPER single amino acid variant, N671 to S (ELDKWASLWSWFNITNWLWYIK)”, which “decrease of 4E10 binding” value (4E10 antibody) is on record?
**A.** The value was “moderately”.

**Q.** Which “stability of MPER adsorption” value [2] does the source give for ELDKWASLWNWFNITNWLWYIK [MPER] here?
**A.** Its value is “stably adsorbed to lipid-enveloped PLGA microparticles for at least a few hours”.

**Q.** And the “order of MPER binding affinity by liposome composition” value (liposomes)?
**A.** Its value is “DMPC<DOPC/DOPG<HIV mimic”.

**Q.** And the “solubility in aqueous solutions” value [3]?
**A.** Its value is “can only be solubilized in aqueous solutions in the presence of detergents or lipid vesicles”.

**Q.** For “4E10 broadly neutralizing anti-gp41 antibody (intact IgG)”, which Kd [4] is on record?
**A.** Its Kd is 10 nM.

**Q.** For “F673: MPER 662-683 peptide with cysteine substitution and nitroxide spin label R1 at position F673 (ELDKWASLWNWC(R1)NITNWLWYIK)”, which “4E10 antibody binding” value (4E10 antibody) is on record?
**A.** Its value is “completely abolished”.

**Q.** With “N671G: HXB2 MPER single amino acid variant, N671 to G (ELDKWASLWGWFNITNWLWYIK)” as the substance, how does the “decrease of 4E10 binding” value (4E10 antibody) read?
**A.** The value was “severely”.

**Q.** With “T676: MPER 662-683 peptide with cysteine substitution and nitroxide spin label R1 at position T676 (ELDKWASLWNWFNIC(R1)NWLWYIK)” as the substance, how does the “4E10 antibody binding” value (4E10 antibody) read?
**A.** Its value is “completely abolished”.
